Assay results reported in US8173169B2, “Formulation and process for the preparation of modafinil” (Hikma Pharmaceuticals, priority 2007, dated 2012).
Where “and” joins values, the source holds several entries; their conditions need not be identical. Equal values may be shown once.

Tests used:
Type in all cases: physicochemical
[1] = Sieve analysis of particle size distribution; conditions: by weight retained
Source text: In using the Coulter Counter, particles suspended in a weak electrolyte solution are drawn through a small aperture, separating two electrodes between which an electric current flows. The voltage applied across the aperture creates a “sensing zone”. As particles pass through the aperture, they displace their own volume of electrolyte, momentarily increasing the impedance of the aperture. This change in impedance produces a pulse that is digitally processed in real time. The Coulter Principle states that the pulse is directly proportional to the tri-dimensional volume of the particle that produced it. […] Sieve sizing is one of the oldest methods used to determine particle size distributions. Samples of known weight are placed on the largest sieve in a stack of sieves of decreasing size. Upon shaking, sample fractions are caught on the respective sieve corresponding to the size of the particles.
Table 2 summarizes particle size distribution of Modafinil of the present invention measured by sieve size analysis.
(§1) Tables 1 and 2 summarize the particle size distribution of modafinil particles B#62605008s obtained by two different sizing methods. Values are reported in microns. The term d (0.1) denotes the diameter of the largest particle found in 10% of the particles sorted in increasing order. The other four terms refer to the diameter of the largest particle found in each 50%, 85%, 90% and 95% of the particles. The term SD denotes the standard deviation and is a measure of the spread of its values and the term RSD refers to the absolute value of the coefficient variation expressed as a percentage. In Table 2 the percentage by weight of particles retained on each mesh cut is reported.

[2] = Particle size analysis by laser diffraction (Malvern Mastersizer 2000)
Source text: As is appreciated by those in the art, different measurement instruments may provide different measurements of the same particles. […] Applicants have therefore performed modafinil particle size analysis using a Malvern Mastersizer 2000 (Worcestershire, UK), and a Coulter Counter (Hiac/Royco instruments, USA) and mechanical sieving methods.
Malvern Mastersizer utilizes the principle of laser diffraction particle sizing. The principle involved is that during the laser diffraction measurement, particles are passed through a focused laser beam and these particles scatter light at an angle that is inversely proportional to their size. The angular intensity of the scattered light is then measured by a series of photosensitive detectors and the map of scattering intensity versus angle is the primary source of information used to calculate the particle size.
Particle size measurements using the Hiac/Royco were generated on Modafinil particles of the present invention suspended in saturated water. For Malvern laser sizing, Modafinil particles can either be suspended in sunflower oil or sized in the dry form.
as §1

[3] = Dissolution rates of modafinil prepared by different formulation processes
Source text: The choice of excipient is also shown to have a significant influence on the dissolution profiles.

[4] = single trials 1-3, Malvern Mastersizer 2000

## NC(=O)C[S+]([O-])C(c1ccccc1)c1ccccc1 (stereo not shown) [Modafinil B# 62605008s, Modafinil]
[1]; particle size range 0-150 μm
  % Oversize: 3.51%
[1]; particle size range 150-180 μm
  % Oversize: 1.25%
[1]; particle size range 180-250 μm
  % Oversize: 7.02%
[1]; particle size range 250-355 μm
  % Oversize: 52.88%
[1]; particle size range 355-425 μm
  % Oversize: 17.04%
[1]; particle size range 425-500 μm
  % Oversize: 12.78%
[1]; particle size range 500-600 μm
  % Oversize: 5.26%
[1]; particle size range 600-800 μm
  % Oversize: 0.25%
[1]; particle size range >800 μm
  % Oversize: 0.00%
[2]; average of 3 trials
  D (0.35) particle size (% undersize): 267.3 microns
  d (0.1) particle size (% undersize): 161.37 microns
  d (0.5) particle size (% undersize): 322.59 microns
  d (0.85) particle size (% undersize): 506.71 microns
  d (0.9) particle size (% undersize): 557.46 microns
  d (0.95) particle size (% undersize): 631.82 microns
[2]; conclusion from two sizing methods (Tables 1 and 2)
  share of particles greater than 220 um: at least 65%
[2]; [4]
  D (0.35) particle size (% undersize): 273.94 microns and 266.93 microns and 261.04 microns
  d (0.1) particle size (% undersize): 172.45 microns and 159.38 microns and 152.26 microns
  d (0.5) particle size (% undersize): 328.58 microns and 322.53 microns and 316.66 microns
  d (0.85) particle size (% undersize): 510.24 microns and 507.09 microns and 502.79 microns
  d (0.9) particle size (% undersize): 561.92 microns and 558.30 microns and 552.16 microns
  d (0.95) particle size (% undersize): 633.06 microns and 632.46 microns and 629.94 microns

## NC(=O)C[S+]([O-])C(c1ccccc1)c1ccccc1 (stereo not shown) [Modafinil particles, Modafinil]
[3]; 5 mins
  % Modafinil Dissolved: 1.80%
[3]; 10 mins
  % Modafinil Dissolved: 5.19%
[3]; 15 mins
  % Modafinil Dissolved: 9.73%
[3]; 20 mins
  % Modafinil Dissolved: 14.31%
[3]; 30 mins
  % Modafinil Dissolved: 23.19%
[3]; 40 mins
  % Modafinil Dissolved: 31.25%
[3]; 60 mins
  % Modafinil Dissolved: 44.09%
[3]; 90 mins
  % Modafinil Dissolved: 71.42%
[3]; result in words
  dissolution profile compared with PROVIGIL 200: significantly slower
